Experimental data reported in PubChem BioAssay (NCI).
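The compound was tested at five concentrations on cells cultured in 96-well plates, with a 48-hour exposure period. TGI: total growth inhibition.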

Experiments:
Assay in all cases: growth of human tumour cells (NCI), 48 h
SN12C renal = tested on: SN12C renal
MOLT-4 leukemia = tested on: MOLT-4 leukemia
SR leukemia = tested on: SR leukemia
MDA-MB-435 = tested on: MDA-MB-435
HCT-116 colon = tested on: HCT-116 colon
KM12 colon = tested on: KM12 colon
MDA-N = tested on: MDA-N
SK-OV-3 ovarian = tested on: SK-OV-3 ovarian
RPMI-8226 leukemia = tested on: RPMI-8226 leukemia
DU-145 prostate = tested on: DU-145 prostate
MALME-3M melanoma = tested on: MALME-3M melanoma
A498 renal = tested on: A498 renal
LOX IMVI melanoma = tested on: LOX IMVI melanoma
RXF 393 renal = tested on: RXF 393 renal
OVCAR-5 ovarian = tested on: OVCAR-5 ovarian
UACC-62 melanoma = tested on: UACC-62 melanoma
OVCAR-4 ovarian = tested on: OVCAR-4 ovarian
SK-MEL-28 melanoma = tested on: SK-MEL-28 melanoma
BT-549 breast = tested on: BT-549 breast
UACC-257 melanoma = tested on: UACC-257 melanoma
SK-MEL-2 melanoma = tested on: SK-MEL-2 melanoma
UO-31 renal = tested on: UO-31 renal
IGROV1 ovarian = tested on: IGROV1 ovarian
NCI-H460 lung = tested on: NCI-H460 lung
T-47D breast = tested on: T-47D breast
PC-3 prostate = tested on: PC-3 prostate
U251 CNS = tested on: U251 CNS
HL-60(TB) leukemia = tested on: HL-60(TB) leukemia
SK-MEL-5 melanoma = tested on: SK-MEL-5 melanoma
K-562 leukemia = tested on: K-562 leukemia
HOP-92 NSCLC = tested on: HOP-92 NSCLC
TK-10 renal = tested on: TK-10 renal
HOP-62 NSCLC = tested on: HOP-62 NSCLC
SNB-19 CNS = tested on: SNB-19 CNS
COLO 205 colon = tested on: COLO 205 colon
SNB-75 CNS = tested on: SNB-75 CNS
HT29 colon = tested on: HT29 colon
SF-268 CNS = tested on: SF-268 CNS
A549 NSCLC = tested on: A549 NSCLC
MDA-MB-231 breast = tested on: MDA-MB-231 breast
ACHN renal = tested on: ACHN renal
SW-620 colon = tested on: SW-620 colon
SF-539 CNS = tested on: SF-539 CNS
NCI/ADR-RES ovarian = tested on: NCI/ADR-RES ovarian
SF-295 CNS = tested on: SF-295 CNS
M14 melanoma = tested on: M14 melanoma
OVCAR-3 ovarian = tested on: OVCAR-3 ovarian
HCT-15 colon = tested on: HCT-15 colon
NCI-H522 lung = tested on: NCI-H522 lung
HS 578T breast = tested on: HS 578T breast
MCF7 breast = tested on: MCF7 breast
EKVX NSCLC = tested on: EKVX NSCLC
CAKI-1 renal = tested on: CAKI-1 renal
OVCAR-8 ovarian = tested on: OVCAR-8 ovarian
NCI-H23 lung = tested on: NCI-H23 lung

SMILES: COCCOc1nc(-c2ccccc2)nc2ccccc12
- TGI (SN12C renal): > 100 µM
- TGI (MOLT-4 leukemia): 70.4 µM
- TGI (SR leukemia): 60.9 µM
- TGI (MDA-MB-435): > 100 µM
- TGI (HCT-116 colon): > 100 µM
- TGI (KM12 colon): > 100 µM
- TGI (MDA-N): > 100 µM
- TGI (SK-OV-3 ovarian): > 100 µM
- TGI (RPMI-8226 leukemia): 45.5 µM
- TGI (DU-145 prostate): > 100 µM
- TGI (MALME-3M melanoma): > 100 µM
- TGI (A498 renal): 70 µM
- TGI (LOX IMVI melanoma): > 100 µM
- TGI (RXF 393 renal): 30.6 µM
- TGI (OVCAR-5 ovarian): > 100 µM
- TGI (UACC-62 melanoma): > 100 µM
- TGI (OVCAR-4 ovarian): > 100 µM
- TGI (SK-MEL-28 melanoma): > 100 µM
- TGI (BT-549 breast): > 100 µM
- TGI (UACC-257 melanoma): > 100 µM
- TGI (SK-MEL-2 melanoma): > 100 µM
- TGI (UO-31 renal): > 100 µM
- TGI (IGROV1 ovarian): > 100 µM
- TGI (NCI-H460 lung): 62 µM
- TGI (T-47D breast): > 100 µM
- TGI (PC-3 prostate): > 100 µM
- TGI (U251 CNS): > 100 µM
- TGI (HL-60(TB) leukemia): > 100 µM
- TGI (SK-MEL-5 melanoma): 88.3 µM
- TGI (K-562 leukemia): > 100 µM
- TGI (HOP-92 NSCLC): 87.6 µM
- TGI (TK-10 renal): > 100 µM
- TGI (HOP-62 NSCLC): > 100 µM
- TGI (SNB-19 CNS): > 100 µM
- TGI (COLO 205 colon): > 100 µM
- TGI (SNB-75 CNS): > 100 µM
- TGI (HT29 colon): > 100 µM
- TGI (SF-268 CNS): > 100 µM
- TGI (A549 NSCLC): > 100 µM
- TGI (MDA-MB-231 breast): > 100 µM
- TGI (ACHN renal): > 100 µM
- TGI (SW-620 colon): > 100 µM
- TGI (SF-539 CNS): > 100 µM
- TGI (NCI/ADR-RES ovarian): > 100 µM
- TGI (SF-295 CNS): > 100 µM
- TGI (M14 melanoma): 90 µM
- TGI (OVCAR-3 ovarian): > 100 µM
- TGI (HCT-15 colon): 43.3 µM
- TGI (NCI-H522 lung): > 100 µM
- TGI (HS 578T breast): 73 µM
- TGI (MCF7 breast): > 100 µM
- TGI (EKVX NSCLC): > 100 µM
- TGI (CAKI-1 renal): > 100 µM
- TGI (OVCAR-8 ovarian): > 100 µM
- TGI (NCI-H23 lung): > 100 µM
